According to publication PMC11003491 (Journal of Enzyme Inhibition and Medicinal Chemistry, 2023):
pIC50: −log10 of the molar value.

Key:
EGFR-WT = EGFR-WT (Homo sapiens, UniProt P00533); test: biochemical; details: EGFR WT IC50, five concentrations
HER-2 = HER-2 (Homo sapiens, UniProt P04626); test: HER-2 Kinase Assay Kit; assay type: biochemical
breast MCF7 cells = test: Cell cycle analysis by flow cytometry; assay type: cell-based, human; details: MCF7, compound at IC50 concentration, 24 h
MCF7 breast cells = test: Apoptosis by Annexin-V-FITC/PI flow cytometry; assay type: cell-based, human; details: MCF7, compound at IC50, 24 h
[1] = test system: A549 small lung cancer cell line; test: MTT cell viability assay, A549; assay type: cell-based; details: Homo sapiens, A549, 48 h, read-out: A549 IC50, MTT, 48 h, mean of six values
MCF-7 = details: read-out: cytotoxicity against MCF-7 IC50; cited from earlier work

HER-2, sequence (P04626 23-1255): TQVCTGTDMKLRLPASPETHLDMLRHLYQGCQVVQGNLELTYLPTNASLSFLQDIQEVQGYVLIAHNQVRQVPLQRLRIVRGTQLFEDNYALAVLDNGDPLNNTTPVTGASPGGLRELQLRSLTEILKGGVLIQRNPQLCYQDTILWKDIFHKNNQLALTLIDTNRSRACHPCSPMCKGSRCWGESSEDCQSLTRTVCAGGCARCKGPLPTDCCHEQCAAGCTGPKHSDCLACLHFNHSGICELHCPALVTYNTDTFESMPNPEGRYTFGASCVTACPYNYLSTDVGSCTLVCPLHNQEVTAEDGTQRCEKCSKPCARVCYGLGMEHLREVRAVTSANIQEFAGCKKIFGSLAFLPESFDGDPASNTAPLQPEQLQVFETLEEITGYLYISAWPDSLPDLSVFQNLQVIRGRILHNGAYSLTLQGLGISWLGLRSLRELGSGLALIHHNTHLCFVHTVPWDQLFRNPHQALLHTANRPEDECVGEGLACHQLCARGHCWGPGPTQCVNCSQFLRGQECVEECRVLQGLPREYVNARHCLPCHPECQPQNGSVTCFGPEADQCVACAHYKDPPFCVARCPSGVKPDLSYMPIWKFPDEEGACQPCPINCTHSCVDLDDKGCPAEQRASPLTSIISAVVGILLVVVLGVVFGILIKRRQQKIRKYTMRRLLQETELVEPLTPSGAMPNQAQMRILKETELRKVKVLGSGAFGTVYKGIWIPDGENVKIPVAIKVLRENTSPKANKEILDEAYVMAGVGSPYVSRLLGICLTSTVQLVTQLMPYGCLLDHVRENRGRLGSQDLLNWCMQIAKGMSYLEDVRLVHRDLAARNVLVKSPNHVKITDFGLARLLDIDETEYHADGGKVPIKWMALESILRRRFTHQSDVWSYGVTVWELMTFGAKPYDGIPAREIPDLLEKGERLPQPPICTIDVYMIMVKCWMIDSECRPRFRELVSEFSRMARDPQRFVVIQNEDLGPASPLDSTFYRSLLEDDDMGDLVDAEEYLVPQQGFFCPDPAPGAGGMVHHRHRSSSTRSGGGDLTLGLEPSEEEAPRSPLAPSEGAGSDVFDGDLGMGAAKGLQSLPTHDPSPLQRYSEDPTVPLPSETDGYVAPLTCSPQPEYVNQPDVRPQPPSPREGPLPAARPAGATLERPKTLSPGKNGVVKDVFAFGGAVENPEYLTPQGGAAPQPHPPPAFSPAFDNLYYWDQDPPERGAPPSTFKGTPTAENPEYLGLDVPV
EGFR-WT, sequence (P00533 25-1210): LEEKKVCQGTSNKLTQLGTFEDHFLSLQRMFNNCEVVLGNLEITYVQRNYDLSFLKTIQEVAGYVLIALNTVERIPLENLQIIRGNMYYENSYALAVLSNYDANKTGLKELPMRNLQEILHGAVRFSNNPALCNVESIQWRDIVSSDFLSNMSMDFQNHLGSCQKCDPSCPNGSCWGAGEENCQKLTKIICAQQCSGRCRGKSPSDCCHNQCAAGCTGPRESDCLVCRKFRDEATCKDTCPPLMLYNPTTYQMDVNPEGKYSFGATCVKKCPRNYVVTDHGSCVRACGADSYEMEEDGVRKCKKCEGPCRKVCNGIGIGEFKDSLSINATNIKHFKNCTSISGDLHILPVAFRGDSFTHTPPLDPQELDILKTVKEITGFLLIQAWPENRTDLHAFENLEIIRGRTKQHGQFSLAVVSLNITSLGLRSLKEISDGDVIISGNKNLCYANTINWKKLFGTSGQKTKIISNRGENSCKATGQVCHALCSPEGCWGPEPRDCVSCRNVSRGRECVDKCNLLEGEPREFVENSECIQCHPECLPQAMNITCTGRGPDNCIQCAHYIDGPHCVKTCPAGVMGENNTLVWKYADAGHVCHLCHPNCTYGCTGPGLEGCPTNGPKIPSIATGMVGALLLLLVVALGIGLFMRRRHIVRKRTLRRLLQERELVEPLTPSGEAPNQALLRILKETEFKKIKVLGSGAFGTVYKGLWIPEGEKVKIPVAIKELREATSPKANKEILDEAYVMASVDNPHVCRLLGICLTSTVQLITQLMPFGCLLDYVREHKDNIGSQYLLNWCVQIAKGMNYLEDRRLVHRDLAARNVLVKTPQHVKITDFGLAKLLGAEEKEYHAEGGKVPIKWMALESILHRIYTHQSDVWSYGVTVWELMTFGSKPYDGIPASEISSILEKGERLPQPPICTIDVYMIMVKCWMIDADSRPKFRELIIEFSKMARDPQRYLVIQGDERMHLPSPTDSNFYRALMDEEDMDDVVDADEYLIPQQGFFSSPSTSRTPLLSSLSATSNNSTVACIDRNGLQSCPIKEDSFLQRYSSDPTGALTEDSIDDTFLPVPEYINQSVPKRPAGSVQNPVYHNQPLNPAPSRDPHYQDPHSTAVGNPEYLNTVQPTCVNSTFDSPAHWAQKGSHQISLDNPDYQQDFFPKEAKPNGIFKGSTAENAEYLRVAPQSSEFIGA

pIC50 (EGFR-WT) | pIC50 (HER-2) | pIC50 [1] | Structure (SMILES) | %G0–G1 (breast MCF7 cells) | %G2-M (breast MCF7 cells) | Apoptosis Early (MCF7 breast cells) | Apoptosis Late (MCF7 breast cells) | Necrosis (MCF7 breast cells) | pIC50 (MCF-7)
6.65 | 6.84 | – | COc1ccc(-c2nn(-c3ccc(S(C)(=O)=O)cc3)cc2/C=N/N=c2\[nH]c(-c3ccc(Br)cc3)cs2)cc1 [Compound 18c, (E)-4–(4-bromophenyl)-2-((E)-((3–(4-methoxyphenyl)-1–(4-(methylsulfonyl)phenyl)-1H-pyrazol-4-yl)methylene)hydrazono)-2,3-dihydrothiazole] | – | – | – | – | – | –
6.41 | 6.71 | – | COc1ccc(-c2nn(-c3ccc(S(C)(=O)=O)cc3)cc2C=N/N=c2\[nH]c(-c3ccc([N+](=O)[O-])cc3)cs2)cc1 [Compound 18d, (E and Z)-2-((E)-((3–(4-methoxyphenyl)-1–(4-(methylsulfonyl)phenyl)-1H-pyrazol-4-yl)methylene)hydrazono)-4–(4-nitrophenyl)-2,3-dihydrothiazole] | 62.43% | 4.39% | 12.58% | 27.45% | 6.52% | –
6.72 | 6.70 | 4.84 to 5.79 | CC(C)Cc1ccc(-c2nn(-c3ccc(S(C)(=O)=O)cc3)cc2/C=N/N=c2\[nH]c(-c3ccc([N+](=O)[O-])cc3)cs2)cc1 [Compound 18f, (E)-2-((E)-((3–(4-isobutylphenyl)-1–(4-(methylsulfonyl)phenyl)-1H-pyrazol-4-yl)methylene)hydrazono)-4–(4-nitrophenyl)-2,3-dihydrothiazole] | – | – | – | – | – | –
– | – | – | C#Cc1cccc(Nc2ncnc3cc(OCCOC)c(OCCOC)cc23)c1 [erlotinib] | – | – | – | – | – | 7.70
